The values below are quoted from earlier work in patent CN116041271A, “一种氟苯尼考中间体的制备方法” (Shandong Weiyan Biotechnology Co ltd, priority 2022, dated 2023).

Data set [1] has as its system Fusobacterium (梭杆菌). Particulars: in words; cattle.
For data set [2] the following is noted: in words.
The conditions of data set [3]: in words. This is another data set of the same source.
For data set [4] the following is noted: administered in feed.

Consider `CS(=O)(=O)c1ccc([C@@H](O)[C@@H](CF)NC(=O)C(Cl)Cl)cc1` [氟苯尼考], for which the “therapeutic effect on bovine foot rot caused by Fusobacterium” value in data set [1] is recorded as “有较好疗效”. Also, in data set [2], the control of disease entry is on record as “能迅速控制病情”. Moreover, in data set [3], the “potential risk of causing aplastic anemia” value is “无潜在致再生障碍性贫血的隐患”, the residue entry is “无残留”, the safety entry was “安全性高” and the toxicity result is “无毒”. For the same compound, the “time after administration to peak drug concentration in tissue” value in data set [4] is 60 min. Besides, the “antibacterial effect relative to chloramphenicol and thiamphenicol” value (compared with chloramphenicol, thiamphenicol) is listed as 15-20 times. In addition, for the setting “in words”, the antibacterial spectrum result was “广”, the bacteriostatic action result is listed as “强” and the “minimum inhibitory concentration (MIC)” value is “低”.
